{"source": "patent US20050112573A1", "about": "“Method of detecting toxic substance” (priority 2001, published 2005)", "system": "yeast genes (level of expressed mRNA)", "test": "DNA chip analysis of expressed mRNA of yeast genes after 2 h culture with a toxic chemical substance", "type": "cell-based, Saccharomyces cerevisiae S288C", "procedure": "Yeast (Saccharomyces cerevtisiae S288C (α SUC2mal mel gap2 CUP1)) were cultured at 25° C. on YPD medium (yeast extract 1%, polypepton 2%, glucose 2%). One of toxic chemical substances was added to the cell at logarithmic growth phase, and the cell was further cultured for two hours. Cell was cultured without any chemical substance in the same condition, and was used as control. Concentrations of the chemical substances were defined to inhibit the growth of the yeast but not lead to death.\nAfter the completion of cultivation, the culture was centrifuged to collect the cells. To the cells, sodium acetate buffer (50 mM sodium acetate, 10 mM EDTA, 1% SDS) was added, and the mixture was shaken at 65° C. for five minutes, followed by returning to room temperature, and obtaining the supernatant, which procedure was repeated two times. To the supernatant, ½ amount of a solution of phenol/chloroform was added, and the mixture was centrifuged to give a supernatant, which was added with an equal amount of chloroform, and the mixture was centrifuged to give a supernatant. To the supernatant, an equal amount of isopropanol containing 0.3 M sodium acetate was added, and the mixture was allowed to stand at room temperature for 30 minutes, after which the mixture was centrifuged to give a sediment of the whole RNAs. Seventy % ethanol was added to the sediment, and the mixture was again centrifuged to give a sediment, which was then dried and dissolved in water. mRNA was isolated from the whole RNAs as followings. In view of the fact that a poly A chain is attached to the 3′ terminus of mRNA, a polynucleotide having a poly T structure which was immobilized on the surface of latex beads was used to trap the mRNA, and then the mRNA was washed and eluted with spine column (Oligotex-dT30<Super>mRNA Purification Kit, Takara). Reverse transcription of the mRNA was conducted with a reverse transcriptase (Super Script II Reverse Transcriptase; catalogue No. 18064-014, GibcoBRL) using fluorescence-labeled nucleotides to give cDNAs that were introduced with Cy3-dUTP or Cy5-dUTP during the reverse transcription.\nThe labeled cDNAs were dissolved in TE buffer (10 mM Tris-HCl/1 mM EDTA, pH8.0), and the solution was dropped on the DNA chip containing the whole genes of yeast (DNA Chip Research Inc. Japan) so that the cDNAs were hybridized on the DNA chip at 65° C. for over 12 hours. The fluoresces intensity of the DNA chip was read with a scanner, and the ratio relative to the fluorescence intensity resulting from the absence of chemical substance was estimated as the following, which is shown in Tables 1 to 9: [formula]\nIn the Tables, “Intensity” indicated in the rightmost column is a value of the level of expressed mRNA of each gene in control cells as divided by the average level of the expressions of the whole genes.", "data": [{"substance": "Na2As [(1)]", "values": [{"measurement": "The level of expressed mRNA in the presence of chemical substance/", "setting": "yeast gene YFL010C, ratio to control without chemical substance, 2 h culture", "result": 1.0}, {"measurement": "The level of expressed mRNA in the presence of chemical substance/", "setting": "yeast gene YFL024C, ratio to control without chemical substance, 2 h culture", "result": 1.0}, {"measurement": "The level of expressed mRNA in the presence of chemical substance/The level of expressed mRNA in the absence of chemical substance", "setting": "yeast gene YFL028C", "result": 1.2}, {"measurement": "The level of expressed mRNA in the presence of chemical substance/", "setting": "yeast gene YFL032W, ratio to control without chemical substance, 2 h culture", "result": 0.4}, {"measurement": "The level of expressed mRNA in the presence of chemical substance/The level of expressed mRNA in the absence of chemical substance", "setting": "yeast gene YFL043C", "result": 1.0}, {"measurement": "The level of expressed mRNA in the presence of chemical substance/in the absence of chemical substance", "setting": "yeast gene YGL035C", "result": 0.7}, {"measurement": "The level of expressed mRNA in the presence of chemical substance/", "setting": "yeast gene YGL037C, ratio to control without chemical substance, 2 h culture", "result": 1.5}, {"measurement": "The level of expressed mRNA in the presence of chemical substance/", "setting": "yeast gene YGL047W, ratio to control without chemical substance, 2 h culture", "result": 1.0}, {"measurement": "The level of expressed mRNA in the presence of chemical substance/", "setting": "yeast gene YGL053W, ratio to control without chemical substance, 2 h culture", "result": 1.5}, {"measurement": "The level of expressed mRNA in the presence of chemical substance/", "setting": "yeast gene YGL121C, ratio to control without chemical substance, 2 h culture", "result": 2.6}, {"measurement": "The level of expressed mRNA in the presence of chemical substance/The level of expressed mRNA in the absence of chemical substance", "setting": "yeast gene YGL158W", "result": 1.1}, {"measurement": "The level of expressed mRNA in the presence of chemical substance/", "setting": "yeast gene YGL199C, ratio to control without chemical substance, 2 h culture", "result": 1.1}, {"measurement": "The level of expressed mRNA in the presence of chemical substance/The level of expressed mRNA in the absence of chemical substance", "setting": "yeast gene YGL229C", "result": 0.6}, {"measurement": "The level of expressed mRNA in the presence of chemical substance/", "setting": "yeast gene YGR101W, ratio to control without chemical substance, 2 h culture", "result": 1.0}, {"measurement": "The level of expressed mRNA in the presence of chemical substance/", "setting": "yeast gene YGR110W, ratio to control without chemical substance, 2 h culture", "result": 1.6}, {"measurement": "The level of expressed mRNA in the presence of chemical substance/", "setting": "yeast gene YGR130C, ratio to control without chemical substance, 2 h culture", "result": 0.9}, {"measurement": "The level of expressed mRNA in the presence of chemical substance/The level of expressed mRNA in the absence of chemical substance", "setting": "yeast gene YGR136W", "result": 0.9}, {"measurement": "The level of expressed mRNA in the presence of chemical substance/", "setting": "yeast gene YGR154C, ratio to control without chemical substance, 2 h culture", "result": 1.8}, {"measurement": "The level of expressed mRNA in the presence of chemical substance/The level of expressed mRNA in the absence of chemical substance", "setting": "yeast gene YGR189C", "result": 1.1}, {"measurement": "The level of expressed mRNA in the presence of chemical substance/The level of expressed mRNA in the absence of chemical substance", "setting": "yeast gene YGR213C", "result": 5.4}, {"measurement": "The level of expressed mRNA in the presence of chemical substance/", "setting": "yeast gene YGR221C, ratio to control without chemical substance, 2 h culture", "result": 0.9}, {"measurement": "The level of expressed mRNA in the presence of chemical substance/The level of expressed mRNA in the absence of chemical substance", "setting": "yeast gene YGR257C", "result": 0.7}, {"measurement": "The level of expressed mRNA in the presence of chemical substance/in the absence of chemical substance", "setting": "yeast gene YGR287C", "result": 1.3}, {"measurement": "The level of expressed mRNA in the presence of chemical substance/The level of expressed mRNA in the absence of chemical substance", "setting": "yeast gene YHR004C", "result": 0.9}, {"measurement": "The level of expressed mRNA in the presence of chemical substance/The level of expressed mRNA in the absence of chemical substance", "setting": "yeast gene YHR071W", "result": 1.5}, {"measurement": "The level of expressed mRNA in the presence of chemical substance/", "setting": "yeast gene YHR138C, ratio to control without chemical substance, 2 h culture", "result": 2.8}, {"measurement": "The level of expressed mRNA in the presence of chemical substance/The level of expressed mRNA in the absence of chemical substance", "setting": "yeast gene YHR139C", "result": 3.0}, {"measurement": "The level of expressed mRNA in the presence of chemical substance/The level of expressed mRNA in the absence of chemical substance", "setting": "yeast gene YHR142W", "result": 1.5}, {"measurement": "The level of expressed mRNA in the presence of chemical substance/", "setting": "yeast gene YHR199C, ratio to control without chemical substance, 2 h culture", "result": 1.9}, {"measurement": "The level of expressed mRNA in the presence of chemical substance/", "setting": "yeast gene YIL023C, ratio to control without chemical", "result": 1.1}, {"measurement": "The level of expressed mRNA in the presence of chemical substance/", "setting": "yeast gene YIL041W, ratio to control without chemical substance, 2 h culture", "result": 1.0}, {"measurement": "The level of expressed mRNA in the presence of chemical substance/", "setting": "yeast gene YIL087C, ratio to control without chemical substance, 2 h culture", "result": 1.3}, {"measurement": "The level of expressed mRNA in the presence of chemical substance/The level of expressed mRNA in the absence of chemical substance", "setting": "yeast gene YIL123W", "result": 1.0}, {"measurement": "The level of expressed mRNA in the presence of chemical substance/The level of expressed mRNA in the absence of chemical substance", "setting": "yeast gene YIL140W", "result": 0.7}, {"measurement": "The level of expressed mRNA in the presence of chemical substance/", "setting": "yeast gene YJL057C, ratio to control without chemical substance, 2 h culture", "result": 1.5}, {"measurement": "The level of expressed mRNA in the presence of chemical substance/", "setting": "yeast gene YJL066C, ratio to control without chemical substance, 2 h culture", "result": 0.9}, {"measurement": "The level of expressed mRNA in the presence of chemical substance/in the absence of chemical substance", "setting": "yeast gene YJL070C", "result": 1.3}, {"measurement": "The level of expressed mRNA in the presence of chemical substance/The level of expressed mRNA in the absence of chemical substance", "setting": "yeast gene YJL073W", "result": 0.8}, {"measurement": "The level of expressed mRNA in the presence of chemical substance/", "setting": "yeast gene YJL082W, ratio to control without chemical substance, 2 h culture", "result": 1.4}, {"measurement": "The level of expressed mRNA in the presence of chemical substance/The level of expressed mRNA in the absence of chemical substance", "setting": "yeast gene YJL089W", "result": 1.1}, {"measurement": "The level of expressed mRNA in the presence of chemical substance/The level of expressed mRNA in the absence of chemical substance", "setting": "yeast gene YJL116C", "result": 0.9}, {"measurement": "The level of expressed mRNA in the presence of chemical substance/", "setting": "yeast gene YJL151C, ratio to control without chemical substance, 2 h culture", "result": 1.0}, {"measurement": "The level of expressed mRNA in the presence of chemical substance/", "setting": "yeast gene YJL152W, ratio to control without chemical substance, 2 h culture", "result": 0.9}, {"measurement": "The level of expressed mRNA in the presence of chemical substance/", "setting": "yeast gene YJL161W, ratio to control without chemical substance, 2 h culture", "result": 1.7}, {"measurement": "The level of expressed mRNA in the presence of chemical substance/in the absence of chemical substance", "setting": "yeast gene YJL167W", "result": 0.9}, {"measurement": "The level of expressed mRNA in the presence of chemical substance/", "setting": "yeast gene YJL171C, ratio to control without chemical substance, 2 h culture", "result": 2.3}, {"measurement": "The level of expressed mRNA in the presence of chemical substance/in the absence of chemical substance", "setting": "yeast gene YJL216C", "result": 0.8}, {"measurement": "The level of expressed mRNA in the presence of chemical substance/The level of expressed mRNA in the absence of chemical substance", "setting": "yeast gene YJR004C", "result": 0.2}, {"measurement": "The level of expressed mRNA in the presence of chemical substance/", "setting": "yeast gene YJR008W, ratio to control without chemical substance, 2 h culture", "result": 1.6}, {"measurement": "The level of expressed mRNA in the presence of chemical substance/", "setting": "yeast gene YJR054W, ratio to control without chemical", "result": 0.8}, {"measurement": "The level of expressed mRNA in the presence of chemical substance/The level of expressed mRNA in the absence of chemical substance", "setting": "yeast gene YJR086W", "result": 1.2}, {"measurement": "The level of expressed mRNA in the presence of chemical substance/The level of expressed mRNA in the absence of chemical substance", "setting": "yeast gene YKL008C", "result": 1.2}, {"measurement": "The level of expressed mRNA in the presence of chemical substance/The level of expressed mRNA in the absence of chemical substance", "setting": "yeast gene YKL013C", "result": 1.4}, {"measurement": "The level of expressed mRNA in the presence of chemical substance/The level of expressed mRNA in the absence of chemical substance", "setting": "yeast gene YKL039W", "result": 0.8}, {"measurement": "The level of expressed mRNA in the presence of chemical substance/The level of expressed mRNA in the absence of chemical substance", "setting": "yeast gene YKL041W", "result": 1.2}, {"measurement": "The level of expressed mRNA in the presence of chemical substance/", "setting": "yeast gene YKL071W, ratio to control without chemical substance, 2 h culture", "result": 8.3}]}]}
